# Measurements from patent publication US20230127046A1, “G9a INHIBITOR” (RIKEN, priority 2019, published 2023).
# pIC50: −log10 of the molar value.
# Target: T1, recombinant human G9a protein (Homo sapiens, UniProt Q96KQ7)
# T1 construct: purchased BPS Bioscience Inc. #51001
# T1 sequence (Q96KQ7 785-1210 limits assumed): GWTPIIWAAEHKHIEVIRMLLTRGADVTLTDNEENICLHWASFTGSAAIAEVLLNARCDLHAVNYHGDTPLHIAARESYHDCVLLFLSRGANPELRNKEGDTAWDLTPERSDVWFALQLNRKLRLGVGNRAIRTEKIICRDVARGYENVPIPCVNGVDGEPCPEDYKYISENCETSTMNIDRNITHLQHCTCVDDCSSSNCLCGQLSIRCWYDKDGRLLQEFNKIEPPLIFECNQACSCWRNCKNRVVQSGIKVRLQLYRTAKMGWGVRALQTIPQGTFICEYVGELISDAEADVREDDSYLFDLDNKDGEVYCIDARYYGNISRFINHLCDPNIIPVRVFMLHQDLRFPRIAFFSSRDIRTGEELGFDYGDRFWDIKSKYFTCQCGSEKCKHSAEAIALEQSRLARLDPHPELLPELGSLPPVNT
# Assay: G9a inhibitory activity test (ALPHA)
# Format: biochemical
# Settings: biotinylated histone H3 peptide (1-21), SAM, read-out: Inhibitory activity (G9a IC50 value)
# Description: The G9a inhibitory activity of each compound was evaluated by measuring the enzymatic activity of G9a by amplified luminescence proximity homogeneous assay (ALPHA). First, 7.5 μL of a dilution of recombinant human G9a protein (BPS Bioscience Inc., #51001) diluted to 0.05 to 0.1 nM with a Tris buffer solution (50 mM Tris-HCl [pH 9.0], 50 mM NaCl, 0.01% Tween-20, 1 mM DTT), and 0.5 μL of the test compound were added to each well of a 384-well microplate (AlphaPlate-384 Shallow Well, PerkinElmer, Inc., #6008359), mixed by vortex, and incubated at room temperature for 10 minutes. 500 nM biotinylated histone H3 peptide (1-21) (AnaSpec Inc., #61702) and 150 μM SAM (Sigma-Aldrich Co. LLC, #A7007) were mixed at 1:1 in advance, and 2 μL of the mixture was added to each well, mixed by vortex, and then incubated at room temperature for 1 hour. AlphaLISA anti-H3K9me2 acceptor beads (PerkinElmer, Inc., #AL117C) and AlphaScreen streptavidin donor beads (PerkinElmer, Inc., #6760002B) were each diluted with an epigenetic buffer (PerkinElmer, Inc., AlphaLISA Epigenetics Buffer Kit #AL008C) to a final concentration of […] after addition. These dilutions were added to the reaction solution in the dark and incubated at room temperature for 1 hour in the dark. Then, measurement was performed using the EnSpire Alpha plate reader (PerkinElmer, Inc., Waltham, Mass., USA). The G9a inhibitory activity of the test compound was calculated as a compound concentration necessary for suppressing G9a enzymatic activity by 50% (IC50 value), by determining the percent inhibition of the compound when the value of a control without the addition of the compound was defined as 0% and the value of a control without the addition of the enzyme was defined as 100%.
row,pIC50,SMILES
1,≤ 6.70,CCCCC(NC(=O)c1[nH]c2c(c1C)C(=O)CC(C)(C)C2)C(=O)NCc1ccccc1OC (stereo not shown) [Example 1-44]
2,≤ 6.70,CCCCC(NC(=O)c1[nH]c2c(c1C)C(=O)CC(C)(C)C2)C(=O)Nc1ccc2[nH]ncc2c1 (stereo not shown) [Example 1-91]
3,6.70 to 7.30,Cc1c(C(=O)NC(CCC2CC2)C(=O)Nc2ccc(O)nc2)[nH]c2c1C(=O)CC(C)(C)C2 (stereo not shown) [Example 1-70]
4,≤ 6.70,Cc1c(C(=O)NC(CCC2CC2)C(=O)N2CCc3cc(Br)ccc32)[nH]c2c1C(=O)CC(C)(C)C2 (stereo not shown) [Example 1-76]
5,≤ 6.70,Cc1c(C(=O)NC(CCC2CC2)C(=O)Nc2ccc(OC3COC3)nc2)[nH]c2c1C(=O)CC(C)(C)C2 (stereo not shown) [Example 1-71]

# Same assay, conditions: read-out: Inhibitory activity (G9a IC50)
row,SMILES,pIC50
1,Cc1c(C(=O)NC(CCC2CC2)C(=O)N2CCc3cc(CN(C)C)ccc32)[nH]c2c1C(=O)CC(C)(C)C2 (stereo not shown) [Example 1-125],≤ 6.70
2,Cc1c(C(=O)NC(CCC2CC2)C(=O)N2CCc3c(OCC4CCN(C)CC4)cccc32)[nH]c2c1C(=O)CC(C)(C)C2 (stereo not shown) [Example 1-121],≤ 6.70
3,"CCCCC(NC(=O)c1[nH]c2c(c1C)C(=O)CC(C)(C)C2)C(=O)NCc1ccc(CCCN)cc1 (stereo not shown) [Example 19, N-[1-[[4-(3-aminopropyl)phenyl]methylamino]-1-oxohexan-2-yl]-3,6,6-trimethyl-4-oxo-5,7-dihydro-1H-indole-2-carboxamide]",> 7.30
4,Cc1c(C(=O)NC(CCC2CC2)C(=O)N2CCc3cc(OCCN(C)C)ccc3C2)[nH]c2c1C(=O)CC(C)(C)C2 (stereo not shown) [Example 1-140],≤ 6.70
5,"CCCCC(NC(=O)C(c1ccccc1)c1ccccc1)C(=O)Nc1ccc(OC)nc1 (stereo not shown) [Example 7, 2-[(2,2-diphenylacetyl)amino]-N-(6-methoxypyridin-3-yl)hexaneamide]",6.70 to 7.30
6,Cc1c(C(=O)NC(CCC2CC2)C(=O)N2CCc3ccc(O)cc32)[nH]c2c1C(=O)CC(C)(C)C2 (stereo not shown) [Example 1-136],≤ 6.70
7,"CCCCC(NC(=O)Cc1ccccc1)C(=O)Nc1ccc(OC2COC2)nc1 (stereo not shown) [Example 10, N-[6-(oxetan-3-yloxy)pyridin-3-yl]-2-[(2-phenylacetyl)amino]hexaneamide]",6.70 to 7.30

# Now from value to compound:
row,pIC50,SMILES
1,≤ 6.70,CCCCC(NC(=O)c1sc(-c2cccnc2)nc1C)C(=O)Nc1ccc(OC2CCN(C)CC2)nc1 (stereo not shown) [Example 6-99]
2,6.70 to 7.30,CCCC[C@@H](NC(=O)c1[nH]c2c(c1C)C(=O)CC(C)(C)C2)C(=O)Nc1ccc(OC2CNC2)nc1 [Example 26-3]
3,≤ 6.70,Cc1c(C(=O)NC(CCC2CC2)c2nc3c(CN(C)C)cccc3n2C)[nH]c2c1C(=O)CC(C)(C)C2 (stereo not shown) [Example 31-3]
4,≤ 6.70,Cc1c(C(=O)NC(C(=O)Nc2ccc(OC3CCN(C)CC3)nc2)c2ccccc2Cl)[nH]c2c1C(=O)CC(C)(C)C2 (stereo not shown) [Example 6-28]
5,≤ 6.70,CCCC[C@H](NC(=O)c1[nH]c2c(c1C)C(=O)CC(C)(C)C2)C(=O)NCc1ccc(N2CCN(CCC)CC2)cc1 [Example 22-4]
6,≤ 6.70,Cc1c(C(=O)N[C@@H](CCC2CC2)C(=O)N(C)[C@H](C)c2ccccc2)[nH]c2c1C(=O)CC(C)(C)C2 [Example 13-3]
7,≤ 6.70,CCCC[C@H](NC(=O)c1[nH]c2c(c1C)C(=O)CC1(CCOCC1)C2)C(=O)N[C@@H](C)c1ccccc1 [Example 6-44]
8,6.70 to 7.30,CCCC[C@H](NC(=O)c1[nH]c2c(c1C)C(=O)CC(C)(C)C2)C(=O)N[C@@H](CO)c1ccccc1 [Example 6-45]
9,> 7.30,CCc1ccncc1NC(=O)C(CCC1CC1)NC(=O)c1[nH]c2c(c1C)C(=O)CC(C)(C)C2 (stereo not shown) [Example 6-2]
10,6.70 to 7.30,Cc1ccc(NC(=O)C(CCC2CC2)NC(=O)c2[nH]c3c(c2C(C)C)C(=O)CC(C)(C)C3)cn1 (stereo not shown) [Example 6-5]
11,≤ 6.70,CCCC[C@H](NC(=O)c1[nH]c2c(c1C)C(=O)CC(C)(C)C2)C(=O)Nc1cccc(N2CCN(C)CC2)c1 [Example 6-48]
12,≤ 6.70,Cc1c(C(=O)NC(CCC2CC2)C(=O)Nc2ccc(Cl)nc2)[nH]c2c1C(=O)CC(C)(C)C2 (stereo not shown) [Example 6-7]
13,> 7.30,CCCC[C@H](NC(=O)c1[nH]c2c(c1C)C(=O)CC(C)(C)C2)C(=O)NC(c1ccccc1)C(C)C (stereo partly shown) [Example 6-47]
